Patent publication US20080220446A1, “Method for Detecting and/or Removing Protein and/or Peptide Comprising a Cross-Beta Structure From an Aqueous Solution Comprising a Protein” (priority 2005, published 2008)
Each block holds one compound with its values, some of them ahead of it.

How the values were obtained:
[1] = molecular target: T1, LRP cl-IV binding to BSA-AGE (Bos taurus, UniProt P02769); test: ELISA, interference with LRP cl-IV binding to BSA-AGE; parameters: species or system human; details: concentration series, 50 times diluted LRP cl-IV medium
T1 construct: made in house; host or cells: HEK293E/S (LRP cl-IV, culture supernatant)
T1 sequence (P02769 25-607): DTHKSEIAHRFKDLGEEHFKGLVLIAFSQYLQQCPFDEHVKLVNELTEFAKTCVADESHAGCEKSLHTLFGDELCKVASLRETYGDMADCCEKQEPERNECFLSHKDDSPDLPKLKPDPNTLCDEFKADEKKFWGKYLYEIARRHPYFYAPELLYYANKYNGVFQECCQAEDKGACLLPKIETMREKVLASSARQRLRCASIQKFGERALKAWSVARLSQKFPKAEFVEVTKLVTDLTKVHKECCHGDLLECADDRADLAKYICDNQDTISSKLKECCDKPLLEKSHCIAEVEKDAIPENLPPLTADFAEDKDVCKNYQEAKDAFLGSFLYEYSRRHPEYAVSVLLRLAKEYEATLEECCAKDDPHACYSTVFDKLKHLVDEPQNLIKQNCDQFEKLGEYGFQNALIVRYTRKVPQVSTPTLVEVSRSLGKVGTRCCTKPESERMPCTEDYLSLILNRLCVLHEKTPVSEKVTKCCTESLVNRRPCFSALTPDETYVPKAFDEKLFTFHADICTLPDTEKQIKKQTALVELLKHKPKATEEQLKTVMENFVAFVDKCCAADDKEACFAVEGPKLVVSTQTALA
Protocol: To test whether amyloid-like crossbeta structure binding compounds tPA, Congo red, Thioflavin T and Thioflavin S interfere with LRP cl-IV binding to BSA-AGE, concentration series of the potential inhibitory amyloid binding moieties were tested in the presence of 50 times diluted medium containing LRP cl-IV. The following inhibitors were used: tPA, Congo red, Thioflavin T (ThT) and Thioflavin S (ThS). As a control to tPA, K2P tPA, which lacks the amyloid-like misfolded protein binding finger domain, was included in the analyses. The influence of tPA and K2P tPA was tested in the presence of 10 mM ε-amino caproic acid to avoid binding of the kringle2 domain of tPA and K2P tPA to lysine- and arginine residues. Binding buffer and K2P tPA serve as negative controls in these inhibition studies. The concentration series was measured in triplicate, the values averaged and standard deviations calculated. Background signals obtained with buffer-coated wells were subtracted. Signals obtained with binding of LRP cluster IV to BSA-AGE was set arbitrarily to a reference binding of 100% and signals obtained with the concentration series of misfolded protein binding moieties and K2P tPA were calculated based on this set reference.

platelets = test: Aggregometric assay with washed platelets; format: cell-based, human; details: 200 μM
Protocol: The presence of protein(s) and/or peptide(s) with amyloid-like misfolded protein conformation on activated blood platelets was tested with washed platelets in an aggregometric assay. Freshly drawn human aspirin free blood was mixed gently with citrate buffer to avoid coagulation. Blood was spinned for 15 minutes at 150*g at 20° C. and supernatant was collected; platelet rich plasma (PRP). […] After spinning down the platelets upon centrifugation for 15 minutes at 330*g at 20° C., the pellet was resuspended in HEPES-Tyrode buffer pH 6.5. Prostacyclin was added to a final concentration of 10 ng/ml, and the solution was centrifuged for 15 minutes at 330*g at 20° C., with a soft brake. The pellet was resuspended in HEPES-Tyrode buffer pH 7.2 in a way that the final platelet number was adjusted to 200,000/μl. Platelets were kept at 37° C. for at least 30 minutes, before use in the assays, to ensure that they were in the resting state.
For the aggregometric assays, 400 μl platelet solution was added to a glass tube with 100 μl containing the agonist of interest, fibrinogen and CaCl2. Final concentrations of fibrinogen and CaCl2 were 0.5 mg/ml and 3 mM, respectively. A stirring magnet was added and the apparatus (Whole-blood aggregometer, Chrono-log, Havertown, Pa., USA) was blanked. Aggregation was followed in time by measuring the absorbance of the solution, that will decrease in time upon platelet aggregation. As a positive control, 0.5 U/ml thrombin was used, or TRAP. Aggregation was followed for 10 minutes. Influence of 200 μM Thioflavin T, 200 μM Congo red or 1 μM tPA on platelet aggregation was analyzed.

[2] = system: tPA binding to amyloid-like aggregates; details: ELISAs; patent application P57716EP00 and unpublished data; cited from earlier work
[3] = molecular target: T2, tPA binding to immobilized Hb-AGE (Homo sapiens, UniProt P68871+P69905); test: ELISA, influence of ellagic acid on tPA binding to immobilized Hb-AGE
T2 construct: purchased tPA: Boehringer Ingelheim (Actilyse); Hb: Sigma-Aldrich Hb: H7379
T2 sequence (P69905 2-142 limits assumed): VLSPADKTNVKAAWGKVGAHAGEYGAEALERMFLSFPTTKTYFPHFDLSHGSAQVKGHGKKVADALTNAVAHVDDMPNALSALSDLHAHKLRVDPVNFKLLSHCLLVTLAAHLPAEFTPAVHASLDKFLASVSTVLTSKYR
T2 sequence (P68871 2-147 limits assumed): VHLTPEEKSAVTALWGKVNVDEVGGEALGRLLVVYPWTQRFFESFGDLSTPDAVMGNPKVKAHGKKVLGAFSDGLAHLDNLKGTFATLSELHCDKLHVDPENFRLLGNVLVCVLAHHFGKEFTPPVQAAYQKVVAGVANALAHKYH
Protocol: Determination of the influence of ellagic acid on the binding of a suboptimal concentration of tPA to a refined concentration of immobilized Hb-AGE. Parameter: a fixed concentration of tPA, in PBS with 0.1% (v/v) Tween20, 10 mM εACA and 10% DMSO, mixed with ellagic acid. As a positive control, tPA in binding buffer with 10% DMSO was used. This binding was set to 100% and values obtained after co-incubation of Hb-AGE with tPA with ellagic acid, were scaled accordingly. Binding experiments were performed in single wells, in a duplicate experiment. Binding data obtained with this duplicate experiment was averaged. Enhancement of tPA binding was arbitrarily set to values>100%. Inhibition of tPA binding to misfolded Hb-AGE was arbitrarily set to values smaller than 50%. With the chosen experimental lay-out, it can not be distinguished whether ellagic acid influences the interaction between tPA and Hb-AGE by binding to Hb-AGE only or by binding to tPA only or by binding to both tPA and Hb-AGE.
In a next series of experiments, the ability of ellagic acid that interacts with tPA and/or Hb-AGE, to bind to immobilized fb-AGE, heat-denatured misfolded ovalbumin and amyloid-β was analyzed. In a first experiment, the coated misfolded Hb-AGE was first incubated with ellagic acid. After washing, tPA binding was assessed. Similar binding assays are performed with misfolded OVA and Aβ. […]

tPA binding to DOVA = molecular target: T3, tPA binding to DOVA (Gallus gallus, UniProt P01012); test: ELISA, influence of ellagic acid on tPA binding to immobilized misfolded ovalbumin
T3 construct: purchased tPA: Boehringer Ingelheim (Actilyse); OVA: Sigma OVA: A-7641
T3 sequence (P01012 2-386 limits assumed): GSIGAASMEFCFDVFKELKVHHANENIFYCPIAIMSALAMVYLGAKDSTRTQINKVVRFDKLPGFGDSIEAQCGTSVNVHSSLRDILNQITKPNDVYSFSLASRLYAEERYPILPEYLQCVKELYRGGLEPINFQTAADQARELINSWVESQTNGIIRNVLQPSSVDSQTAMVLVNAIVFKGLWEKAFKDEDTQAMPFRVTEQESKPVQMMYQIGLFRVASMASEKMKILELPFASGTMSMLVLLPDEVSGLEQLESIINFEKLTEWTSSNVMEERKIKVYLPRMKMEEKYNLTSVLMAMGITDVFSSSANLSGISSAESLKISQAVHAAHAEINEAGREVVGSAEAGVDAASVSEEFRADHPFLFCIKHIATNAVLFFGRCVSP
Protocol: In a next series of experiments, the ability of ellagic acid that interacts with tPA and/or Hb-AGE, to bind to immobilized fb-AGE, heat-denatured misfolded ovalbumin and amyloid-β was analyzed. In a first experiment, the coated misfolded Hb-AGE was first incubated with ellagic acid. After washing, tPA binding was assessed. Similar binding assays are performed with misfolded OVA and Aβ. Finally, concentration series of ellagic acid are used in the binding studies.
Ellagic acid was co-incubated with 0.5 nM tPA. Controls: 1 mM ThT with 0.5 nM tPA, 0.5 mM CR with 0.5 nM tPA, 0.5 nM tPA without compound and buffer without tPA. Next, coated ELISA plates were first -pre-incubated with ellagic acid (for 30 minutes) followed by tPA incubation (for 30 minutes). For similar ELISA's with DOVA and Aβ(1-40) E22Q, 1 μg/ml DOVA or Aβ was coated and overlayed with 80 nM tPA. Subsequently, DOVA or Aβ coated wells and buffer-coated control wells were first incubated with 500 μg/ml ellagic acid, followed by an overlay with tPA.

Hb-AGE = molecular target: T4, Hb-AGE (Homo sapiens, UniProt P68871+P69905); test: Binding of Hb-AGE from solution to immobilized ellagic acid; details: Hb-AGE 10 μg/ml, background subtracted
T4 construct: purchased Sigma-Aldrich H7379
T4 sequence (P69905 2-142 limits assumed): as the sequence (P69905 2-142 limits assumed) above
T4 sequence (P68871 2-147 limits assumed): as the sequence (P68871 2-147 limits assumed) above
Protocol: (§1) To test the ability of ellagic acid to bind to misfolded proteins, ellagic acid was immobilized at 100 μg/ml in the wells of a 96-wells Greiner Microlon high binding plate and a Nunc Maxisorp plate. Ellagic acid was coated in 100 mM NaHCO3 pH 9.6, 50 μp/well, 1 h at room temperature with agitation. As a control for subtraction of background signals of binding of misfolded proteins to wells without ellagic acid, wells were coated with buffer only. After blocking of the plates, wells were overlayed with solutions of 0.1/1/10 μg/ml Hb-AGE or 10/100 μg/ml Aβ, in binding buffer (PBS/0.1% Tween20). After washing, binding of Hb-AGE was assessed by overlaying wells with 1 μg/ml hybridoma antibody 4B5, which binds to glycations (^1), followed by RAMPO. Binding of Aβ was visualized using 500× diluted anti-Aβ antibodies (mouse antibody beta-amyloid Clone 6F/3D #M0872, lot 00003503, DAKOCytomation; β-amyloid (H-43) SC-9129, 200 μg/ml rabbit polyclonal IgG, Santa Cruz Biotechnology) and RAMPO/SWARPO in a 1:1 ratio. Finally, wells were overlayed with OPD/H2O2 solution, and H2SO4, before absorbance readings at 490 nm.

Aβ = molecular target: T5, Aβ (Homo sapiens, UniProt P05067, E693Q); test: Binding of Aβ from solution to immobilized ellagic acid; details: Nunc Maxisorp, Aβ 100 μg/ml, background subtracted
T5 construct: Human amyloid-β (Ap) (1-40) Dutch type
Protocol: as §1

fibronectin F4,5 = molecular target: T6, fibronectin F4,5 (Homo sapiens, UniProt P02751); test: Affinity determination ELISA, fibronectin F4,5 on coated (mis)folded proteins; format: binding; details: coated protein as labelled
T6 construct: human fibronectin finger 4,5 (Fn F4,5) fragment; made in house; host or cells: HEK293E
T6 sequence (P02751 182-276 limits assumed): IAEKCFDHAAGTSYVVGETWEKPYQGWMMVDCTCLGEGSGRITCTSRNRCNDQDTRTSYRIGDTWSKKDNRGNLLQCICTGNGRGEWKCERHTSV
Description: (§2) Synthetic genes of human BiP, human fibronectin finger 4,5 (Fn F4,5) fragment, and human tissue-type plasminogen activator finger EGF (tPA F-EGF) fragment were ordered from Geneart (Regensburg, Germany). These DNA constructs were digested using BamHI and NotI, and ligated into vector pABC674 (ABC-expression facility, Utrecht University, The Netherlands), which contains a carboxy-terminal FLAG-tag—His-tag. HEK293E cells were transiently transfected with these constructs using the polyethylene-imine method, and grown for 5-6 days.
(§3) Denatured proteins and their native controls BSA (Sigma, A7906), glycated BSA, Hb (Sigma, H7605), glycated Hb, ovalbumin (Sigma, A6741), heat-denatured misfolded ovalbumin, human γ-globulins (Sigma, G4386), heat-denatured misfolded γ-globulins, alkyl-γ-globulins, lysozyme (ICN Biochemicals, 100831) and alkyl-lysozyme were coated on ELISA plates (Greiner Microlon high-binding, 655092) in 50 mM NaHCO3-buffer pH 9.6. The plates were blocked using Blocking reagent (Roche 1112589). […] Bound protein is detected by the FLAG-tag using 1:3000 anti-FLAG-HRP (Sigma A-8592) in PBS-T, or by 1:1000 Ni-NTA-HRP (Qiagen 34530) in PBS-T. The HRP reaction Is performed using the TMB substrate (Biosource 4501103 or Tebu Bio 101TMB100-500), stopped using 10% H2SO4 and absorbance was measured at 450 nm.

BiP = molecular target: T7, BiP (Homo sapiens, UniProt P11021); test: Affinity determination ELISA, BiP on coated (mis)folded proteins; format: binding; details: coated protein as labelled
T7 construct: made in house; host or cells: HEK293E
T7 sequence (P11021 19-654): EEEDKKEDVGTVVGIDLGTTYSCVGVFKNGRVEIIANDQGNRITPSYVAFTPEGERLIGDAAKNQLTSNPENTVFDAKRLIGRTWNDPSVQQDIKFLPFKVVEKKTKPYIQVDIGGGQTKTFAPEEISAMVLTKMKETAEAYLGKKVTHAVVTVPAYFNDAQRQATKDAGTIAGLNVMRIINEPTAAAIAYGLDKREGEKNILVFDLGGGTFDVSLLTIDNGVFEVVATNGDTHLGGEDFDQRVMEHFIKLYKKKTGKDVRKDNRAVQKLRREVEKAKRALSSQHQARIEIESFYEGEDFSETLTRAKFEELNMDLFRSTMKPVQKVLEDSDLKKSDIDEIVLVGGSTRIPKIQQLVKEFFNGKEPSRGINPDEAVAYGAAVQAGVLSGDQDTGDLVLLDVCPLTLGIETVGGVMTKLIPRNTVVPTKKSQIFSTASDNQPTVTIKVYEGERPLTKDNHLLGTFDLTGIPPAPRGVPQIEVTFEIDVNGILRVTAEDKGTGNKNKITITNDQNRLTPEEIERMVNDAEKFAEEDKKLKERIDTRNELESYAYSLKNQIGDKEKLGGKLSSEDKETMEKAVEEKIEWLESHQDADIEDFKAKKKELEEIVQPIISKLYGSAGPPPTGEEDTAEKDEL
Description: as §2, §3

influence on binding of LRP cl-IV to BSA-AGE [1]: do not interfere
Compound: Cc1ccc2c(c1)sc(-c1ccc(N(C)C)cc1)[n+]2C.[Cl-] [ThT, Thioflavin T]
inhibition of platelet aggregation (platelets): up to 45%
competition for tPA binding to amyloid-like aggregates [2]: did not inhibit tPA binding at all

Compound: O=c1oc2c(O)c(O)cc3c(=O)oc4c(O)c(O)cc1c4c23 [ellagic acid]
influence on tPA binding to Hb-AGE ([3]; ELISA): stimulator of tPA binding
direct interaction with immobilized misfolded protein ([3]; pre-incubation of coated Hb-AGE or misfolded OVA, then tPA): binds directly to misfolded protein
influence on tPA binding to DOVA (tPA binding to DOVA): stimulator of tPA binding
Signal (Hb-AGE; Greiner Microlon): 0.13 a.u.
Signal (Hb-AGE; Nunc Maxisorp): 0.15 a.u.
Signal (Aβ): 0.054 a.u.

affinity for fibronectin F4,5 (fibronectin F4,5): high affinity
Compound: Freshly dissolved lysozyme: lysozyme (ICN Biochemicals)

binding of BiP (BiP): not
Compound: heat-denatured BSA: heat-denatured bovine serum albumin
